From ChEMBL document CHEMBL1137686, “Synthesis and anticonvulsant activity of new N-[(4-arylpiperazin-1-yl)-alkyl] derivatives of 3-phenyl-pyrrolidine-2,5-dione” (Eur J Med Chem, 2009)
Activity calls are given as the source filed them. No cut-off for these calls is given here.

Legend:
Mus musculus [1] = assay: Anticonvulsant activity in ip dosed mouse assessed as inhibition of maximal electroshock-induced seizures; type: functional
Rattus norvegicus [2] = assay: Anticonvulsant activity in po dosed rat assessed as inhibition of maximal electroshock-induced seizures; type: functional
Mus musculus [3] = assay: Anticonvulsant activity in CF1 albino mouse assessed as inhibition of subcutaneous pentylenetetrazole-induced seizures at 100 mg/kg, ip after 4 hrs; type: functional, organism-based; design: dose 100 mg/kg
Mus musculus [4] = assay: Anticonvulsant activity in ip dosed CF1 albino mouse assessed as inhibition of maximal electroshock-induced seizures after 4 hrs; type: functional
Mus musculus [5] = assay: Anticonvulsant activity in CF1 albino mouse assessed as inhibition of subcutaneous pentylenetetrazole-induced seizures at 300 mg/kg, ip after 4 hrs; type: functional, organism-based; design: dose 300 mg/kg
Mus musculus [6] = assay: Toxicity in CF1 albino mouse assessed as myoclonic jerks at 300 mg/kg, ip after 4 hrs; type: organism-based; design: dose 300 mg/kg, route intraperitoneal; conditions: in vivo
Mus musculus [7] = assay: Neurotoxicity in CF1 albino mouse assessed as occurance of tremors at 300 mg/kg, ip after 4 hrs by rotarod test; type: toxicity, organism-based; design: dose 300 mg/kg, route intraperitoneal; conditions: in vivo
Mus musculus [8] = assay: Toxicity in CF1 albino mouse assessed as myoclonic jerks at 100 mg/kg, ip after 4 hrs; type: organism-based; design: dose 100 mg/kg, route intraperitoneal; conditions: in vivo
Mus musculus [9] = assay: Anticonvulsant activity in ip dosed CF1 albino mouse assessed as inhibition of maximal electroshock-induced seizures after 0.5 hrs; type: functional
Mus musculus [10] = assay: Neurotoxicity in ip dosed CF1 albino mouse assessed as ability to maintain equilibrium for 1 min on […] after 0.5 hrs by rotarod test; type: toxicity, organism-based; conditions: in vivo
Mus musculus [11] = assay: Neurotoxicity in ip dosed CF1 albino mouse assessed as ability to maintain equilibrium for 1 min on […] after 4 hrs by rotarod test; type: toxicity, organism-based; conditions: in vivo
Rattus norvegicus [12] = assay: Anticonvulsant activity against maximal electroshock-induced seizures in po dosed rat assessed as time to peak effect; type: functional
Mus musculus [13] = assay: Neurotoxicity in CF1 albino mouse assessed as motor impairment at 30 mg/kg, po after 2 hrs by rotarod test; type: toxicity, organism-based; design: dose 30 mg/kg, route oral; conditions: in vivo
Mus musculus [14] = assay: Neurotoxicity in CF1 albino mouse assessed as motor impairment at 30 mg/kg, po after 1 hr by rotarod test; type: toxicity, organism-based; design: dose 30 mg/kg, route oral; conditions: in vivo
[15] = Neurotoxicity in po dosed rat assessed as ability to maintain equilibrium for 1 min on […] by rotarod test; type: toxicity, organism-based; conditions: in vivo
Mus musculus [16] = assay: Neurotoxicity in CF1 albino mouse assessed as ability to maintain equilibrium for 1 min on […] at 300 mg/kg, ip after 4 hrs by rotarod test; type: toxicity, organism-based; design: dose 300 mg/kg, route intraperitoneal; conditions: in vivo
Rattus norvegicus [17] = species: Rattus norvegicus; assay: Protective index, ratio of TD50 for neurotoxicity in rat to ED50 for inhibition of maximal electroshock-induced seizures in rat; type: functional
Mus musculus [18] = assay: Neurotoxicity in CF1 albino mouse assessed as motor impairment at 30 mg/kg, po after 4 hrs by rotarod test; type: toxicity, organism-based; design: dose 30 mg/kg, route oral; conditions: in vivo
Rattus norvegicus [19] = assay: Anticonvulsant activity in po dosed rat assessed as inhibition of subcutaneous pentylenetetrazole-induced seizures; type: functional
Mus musculus [20] = assay: Neurotoxicity in CF1 albino mouse assessed as motor impairment at 30 mg/kg, po after 0.25 hrs by rotarod test; type: toxicity, organism-based; design: dose 30 mg/kg, route oral; conditions: in vivo
Mus musculus [21] = assay: Anticonvulsant activity in CF1 albino mouse assessed as protection against maximal electroshock-induced seizures at 30 mg/kg, po after 4 hrs; type: functional
Mus musculus [22] = assay: Anticonvulsant activity in CF1 albino mouse assessed as protection against maximal electroshock-induced seizures at 30 mg/kg, po after 1 hr; type: functional
Mus musculus [23] = assay: Anticonvulsant activity in CF1 albino mouse assessed as protection against maximal electroshock-induced seizures at 30 mg/kg, po after 0.5 hrs; type: functional
Mus musculus [24] = assay: Neurotoxicity in CF1 albino mouse assessed as motor impairment at 30 mg/kg, po after 0.5 hrs by rotarod test; type: toxicity, organism-based; design: dose 30 mg/kg, route oral; conditions: in vivo
Mus musculus [25] = assay: Anticonvulsant activity in CF1 albino mouse assessed as inhibition of maximal electroshock-induced seizures at 300 mg/kg, ip after 0.5 hrs; type: functional, organism-based; design: dose 300 mg/kg
Mus musculus [26] = assay: Anticonvulsant activity in CF1 albino mouse assessed as protection against maximal electroshock-induced seizures at 30 mg/kg, po after 2 hrs; type: functional
Mus musculus [27] = assay: Anticonvulsant activity in CF1 albino mouse assessed as protection against maximal electroshock-induced seizures at 30 mg/kg, po after 0.25 hrs; type: functional
Mus musculus [28] = assay: Neurotoxicity in CF1 albino mouse assessed as ability to maintain equilibrium for 1 min on […] at 300 mg/kg, ip after 0.5 hrs by rotarod test; type: toxicity, organism-based; design: dose 300 mg/kg, route intraperitoneal; conditions: in vivo
Mus musculus [29] = assay: Anticonvulsant activity in ip dosed CF1 albino mouse assessed as inhibition of subcutaneous pentylenetetrazole-induced seizures; type: functional
Mus musculus [30] = assay: Anticonvulsant activity against maximal electroshock-induced seizures in ip dosed CF1 albino mouse assessed as time to peak effect; type: functional
[31] = Neurotoxicity in ip dosed CF1 albino mouse assessed as ability to maintain equilibrium for 1 min on […] by rotarod test; type: toxicity, organism-based; conditions: in vivo
Mus musculus [32] = species: Mus musculus; assay: Protective index, ratio of TD50 for neurotoxicity in CF1 albino mouse to ED50 for inhibition of maximal electroshock-induced seizures in CF1 albino mouse; type: functional
Mus musculus [33] = assay: Anticonvulsant activity in ip dosed CF1 albino mouse assessed as inhibition of maximal electroshock-induced seizures; type: functional
Mus musculus [34] = assay: Anticonvulsant activity in CF1 albino mouse assessed as inhibition of maximal electroshock-induced seizures at 300 mg/kg, ip after 4 hrs; type: functional, organism-based; design: dose 300 mg/kg

SMILES: O=C1CC2(CCc3ccccc3C2)C(=O)N1CCCN1CCN(c2cccc(C(F)(F)F)c2)CC1 (stereo not drawn)
- ED50 (Mus musculus [1]; Mus musculus, ip): 23 mg/kg

SMILES: O=C1CC(c2ccccc2Cl)C(=O)N1CN1CCN(c2cccc(Cl)c2)CC1 (stereo not drawn)
- ED50 (Rattus norvegicus [2]): 14.2 mg/kg

SMILES: COc1ccccc1N1CCN(CN2C(=O)CC(c3ccccc3C(F)(F)F)C2=O)CC1 (stereo not drawn)
- Activity (Mus musculus [3]): Active
- Activity (Mus musculus [4]): 300 mg/kg
- Activity (Mus musculus [5]): Active
- Activity (Mus musculus [6]): Toxic
- Activity (Mus musculus [7]): Toxic
- Activity (Mus musculus [8]): Toxic
- Activity (Mus musculus [9]): 300 mg/kg
- Activity (Mus musculus [10]): 100 mg/kg
- Activity (Mus musculus [11]): 100 mg/kg

SMILES: O=C1CC(c2ccccc2C(F)(F)F)C(=O)N1CN1CCN(c2ccccc2)CC1 (stereo not drawn)
- Activity (Mus musculus [4]): 30 mg/kg
- Time (Rattus norvegicus [12]): 8 h
- Activity (Mus musculus [13]): Non-toxic
- Activity (Mus musculus [14]): Non-toxic
- TD50 at 1 min [15]: > 500 mg/kg
- Activity (Mus musculus [16]): Non-toxic
- Ratio TD50/ED50 (Rattus norvegicus [17]): >24.1
- Activity (Mus musculus [18]): Non-toxic
- ED50 (Rattus norvegicus [19]): > 250 mg/kg
- Activity (Mus musculus [20]): Non-toxic
- Activity (Mus musculus [21]): 75%
- Activity (Mus musculus [22]): 25%
- Activity (Mus musculus [23]): inactive
- ED50 (Rattus norvegicus [2]): 20.8 mg/kg
- Activity (Mus musculus [10]): 300 mg/kg
- Activity (Mus musculus [24]): Non-toxic
- Activity (Mus musculus [25]): inactive
- Activity (Mus musculus [26]): 50%
- Activity (Mus musculus [27]): 25%

SMILES: Cc1ccccc1C1CC(=O)N(CCCN2CCN(c3cccc(C(F)(F)F)c3)CC2)C1=O (stereo not drawn)
- Activity (Mus musculus [4]): 100 mg/kg
- Activity (Mus musculus [13]): 25%
- Activity (Mus musculus [28]): Non-toxic
- Activity (Mus musculus [14]): Non-toxic
- Activity (Mus musculus [16]): Non-toxic
- Activity (Mus musculus [18]): Non-toxic
- Activity (Mus musculus [20]): Non-toxic
- Activity (Mus musculus [21]): inactive
- Activity (Mus musculus [22]): inactive
- Activity (Mus musculus [23]): inactive
- Activity (Mus musculus [9]): 100 mg/kg
- Activity (Mus musculus [24]): Non-toxic
- Activity (Mus musculus [26]): inactive
- Activity (Mus musculus [27]): inactive

SMILES: O=C1NC(=O)C(c2ccccc2)(c2ccccc2)N1 [PHENYTOIN]
- Activity (Mus musculus [4]): 30 mg/kg
- Time (Rattus norvegicus [12]): 2 h
- ED50 (Mus musculus [29]): > 500 mg/kg
- TD50 at 1 min [15]: > 500 mg/kg
- Time (Mus musculus [30]): 1 h
- Ratio TD50/ED50 (Rattus norvegicus [17]): >21.6
- ED50 (Rattus norvegicus [19]): > 500 mg/kg
- TD50 at 1 min [31]: 41.2 mg/kg
- Activity (Mus musculus [23]): Active
- Ratio TD50/ED50 (Mus musculus [32]): 6.52
- Activity (Mus musculus [9]): 30 mg/kg
- Activity (Mus musculus [10]): 100 mg/kg
- ED50 (Mus musculus [33]): 5.32 mg/kg
- Activity (Mus musculus [11]): 100 mg/kg

SMILES: Cc1cccc(N2CCN(CCCN3C(=O)CC(c4ccccc4Cl)C3=O)CC2)c1 (stereo not drawn)
- Activity (Mus musculus [1]): 120 mg/kg

SMILES: O=C1CC(c2ccccc2C(F)(F)F)C(=O)N1CCN1CCN(c2ccccc2)CC1 (stereo not drawn)
- Activity (Mus musculus [28]): Non-toxic
- Activity (Mus musculus [16]): Non-toxic
- Activity (Mus musculus [34]): inactive
- Activity (Mus musculus [25]): inactive
